The text below walks through data of US8846684B2 (priority 2011, dated 2014).

The test system of one series is WEEV replicon. Kind of series: microbe, parasite or virus in culture. It is filed as cell-based, Western equine encephalitis virus.
Another series relates to NSV. It is filed as cell-based, neuroadapted Sindbis virus.
The next series has as its system WEEV. It is filed as cell-based, Western equine encephalitis virus.
Another series deals with wild-type VEEV. The conditions noted are these: in vivo; cited from earlier work.
The test system of series [1] is vaccine strain of Venezuelan equine encephalitis virus (VEEV). The conditions noted are these: mouse, in vivo; cited from earlier work.
Where [2] appears, read: Western equine encephalitis virus, read-out: Activity IC50 (μM).
Where [3] appears, read: Western equine encephalitis virus.
The mark [4] stands for this setting: Western equine encephalitis virus; read-out: 50 μM (% control) Luc.

Like-named read-outs stand apart in the source and are kept apart here.

In the case of `O=C(NCc1ccccc1)C1CCN(C(=O)c2cc3ccccc3n2Cc2ccc(Cl)cc2)CC1` [CCG 102516, N-benzyl-1-(1-(4-chlorobenzyl)-1H-indole-2-carbonyl)piperidine-4-carboxamide], the IC50 in the series with WEEV replicon (setting [2]) was found to be 18.6 µM. For the same molecule, in the series on WEEV replicon (Western equine encephalitis virus; read-out: Activity (% control LUC) 2 μM), the activity at 2 µM turned out to be 88%. In addition, the activity at 10 µM with WEEV replicon (Western equine encephalitis virus; read-out: Activity (% control LUC) 10 μM) came out at 76.9%. Besides, the activity at 50 µM with WEEV replicon (Western equine encephalitis virus; read-out: Activity (% control LUC) 50 μM) was 59.7%. Further, in the series on NSV, the “NSV titers (virion production, plaque assay)” value is recorded as “significantly reduced”. Also, in the series with WEEV, the “WEEV titers (virion production, plaque assay)” value is “significantly reduced”.
Take `C[C@@H](NC(=O)C1CCN(C(=O)c2cc3ccccc3n2Cc2ccc(Cl)cc2)CC1)c1ccccc1` [CCG 203926, (R)-1-(1-(4-chlorobenzyl)-1H-indole-2-carbonyl)-N-(1-phenylethyl)piperidine-4-carboxamide]: the cytotoxicity entry in the series with BSR-T7/C3 clone is recorded as “relatively low cytotoxicity”. For the same molecule, in the series with WEEV replicon, the “activity in the replicon inhibition assay (in words)” value is “active”. Further, in the series with WEEV replicon (Western equine encephalitis virus, read-out: Activity (% control LUC) 2 μM), the activity at 2 µM turned out to be 100%. Also, in the series with WEEV replicon (Western equine encephalitis virus, read-out: Activity (% control LUC) 10 μM), the activity at 10 µM came to 55%. Besides, in the series on WEEV replicon (Western equine encephalitis virus, read-out: Activity (% control LUC) 50 μM), the activity at 50 µM was determined as 17%. Also, the IC50 in the series with WEEV replicon (setting [2]) was determined as 8.7 µM. Moreover, the “NSV titers (virion production, plaque assay)” value with NSV is given as “significantly reduced”. Moreover, in the series with WEEV, the “WEEV titers (virion production, plaque assay)” value was “significantly reduced”.
Turning to `C[C@H](NCC1CCN(C(=O)c2cc3ccccc3n2Cc2ccc(F)cc2)CC1)c1ccccc1` [CCG 206501, (S)-(1-(4-fluorobenzyl)-1H-indol-2-yl)(4-(((1-phenylethyl)amino)methyl)piperidin-1-yl)methanone], in the series with WEEV replicon (setting [3]), the IC50 stood at 8.9 µM. For the same molecule, the activity at 50 µM with WEEV replicon (setting [4]) turned out to be 0%.
On to `O=C(c1cc2ccccc2n1Cc1ccc(F)cc1)N1CCC(CN2CCOCC2)CC1` [CCG 206502, (1-(4-fluorobenzyl)-1H-indol-2-yl)(4-(morpholinomethyl)piperidin-1-yl)methanone], for which the IC50 in the series with WEEV replicon (setting [3]) came out at 40.6 µM. Also, in the series on WEEV replicon (setting [4]), the activity at 50 µM was found to be 39.1%.
Turning to `CN(Cc1ccccc1)CC1CCN(C(=O)c2cc3ccccc3n2Cc2ccc(F)cc2)CC1` [CCG 206503, (4-((benzyl(methyl)amino)methyl)piperidin-1-yl)(1-(4-fluorobenzyl)-1H-indol-2-yl)methanone], the IC50 in the series with WEEV replicon (setting [3]) was found to be 25.1 µM. Besides, the activity at 50 µM with WEEV replicon (setting [4]) worked out at 28.2%.
On to `CC(NC(=O)C1CCN(C(=O)c2cc3ccccc3n2Cc2ccc(Cl)cc2)CC1)C1Cc2ccccc2C1` (stereo not shown) [CCG 206549, 1-(1-(4-chlorobenzyl)-1H-indole-2-carbonyl)-N-(1-(2,3-dihydro-1H-inden-2-yl)ethyl)piperidine-4-carboxamide], for which it took 1.7 µM to reach half-maximal inhibition in the series on WEEV replicon (setting [3]) (IC50). In the series with WEEV replicon (setting [4]), the activity at 50 µM amounted to 36.9%.
Turning to `O=C(NCC1CCc2ccccc21)C1CCN(C(=O)c2cc3ccccc3n2Cc2ccc(Cl)cc2)CC1` (stereo not shown) [CCG 206550, 1-(1-(4-chlorobenzyl)-1H-indole-2-carbonyl)-N-((2,3-dihydro-1H-inden-1-yl)methyl)piperidine-4-carboxamide], the IC50 in the series with WEEV replicon (setting [3]) turned out to be 7.1 µM. For the same molecule, the activity at 50 µM in the series on WEEV replicon (setting [4]) amounted to 47.4%.
The molecule `O=C(NCCc1ccncc1)C1CCN(C(=O)c2nc3ccccc3n2Cc2ccc(Cl)cc2)CC1` [CCG 206565, 1-(1-(4-chlorobenzyl)-1H-benzo[d]imidazole-2-carbonyl)-N-(2-(pyridin-4-yl)ethyl)piperidine-4-carboxamide] showed an IC50 with WEEV replicon (setting [3]) of 4.07 µM. Besides, the activity at 50 µM in the series on WEEV replicon (setting [4]) was 12%.
In turn, `CC(CNC(=O)C1CCN(C(=O)c2cc3ccccc3n2Cc2ccc(Cl)cc2)CC1)c1ccncc1` (stereo not shown) [CCG 206580, 1-(1-(4-chlorobenzyl)-1H-indole-2-carbonyl)-N-(2-(pyridin-4-yl)propyl)piperidine-4-carboxamide] displayed an IC50 in the series on WEEV replicon (setting [3]) of 1.66 µM. The activity at 50 µM with WEEV replicon (setting [4]) came out at 13.4%.
On the same counts, the results for `O=C(NCC1COc2cnccc21)C1CCN(C(=O)c2cc3ccccc3n2Cc2ccc(Cl)cc2)CC1` (stereo not shown) [CCG 206581, 1-(1-(4-chlorobenzyl)-1H-indole-2-carbonyl)-N-((2,3-dihydrofuro[2,3-c]pyridin-3-yl)methyl)piperidine-4-carboxamide] are 3.58 µM and 8.6%.
With `O=C(NCc1ccccc1)C1CCN(C(=O)c2nccn2Cc2ccc(Cl)cc2)CC1` [CCG 206586, N-benzyl-1-(1-(4-chlorobenzyl)-1H-imidazole-2-carbonyl)piperidine-4-carboxamide], in the series with WEEV replicon (setting [4]), the activity at 50 µM is 69.5%.
Turning to (−)-carbodine, the “benefit following wild-type VEEV challenge” value with wild-type VEEV was “no benefit”. For the same molecule, in series [1], the disease outcome was “improved outcome” and the “lowering of peak CNS viral titers” value is listed as “half-log”.

Usually IC50 stands for the concentration that gives 50% inhibition.
